# Patent publication US20060182683A1, “Methods for reduced renal uptake of protein conjugates” (Center for Molecular Medicine and Immunology, priority 1995, published 2006)
# Assays:
# Format in all cases: in vivo
# [1] = test system: mice; assay: Kidney uptake of 111In- and 88Y-labeled F(ab)2 fragments of MN-14
# Source text: (§1) After cervical dislocation, the animals were dissected.
# [2] = test system: BALB/c mice; assay: Kidney uptake and biodistribution of 99mTc-Fab′ NP-4 under lysine treatment; conditions: for Kidney uptake, % of contr.: L-lysine 2000 μg/g
# Method: as §1
# (§2) L-lysine was injected i.p. in hourly intervals from 30 min before until 3 h after intravenous antibody injections (−30′, 1 h, 2 h, 3 h p.i.). […] At doses above this threshold, a strong dose-effect relationship was found. At 4×2000 μg/g, kidney uptake was reduced to 19±1% of the untreated control group at 4 h p.i.
# [3] = test system: mice; assay: Kidney uptake and dosimetry of yttrium-labeled F(ab′)2 of anti-CD22 LL2 under L-lysine; conditions: Lys treated
# Method: Female BALB/c mice, 19 to 22 g of weight, 4 to 5 weeks of age (Charles River Laboratories, Boston, Mass.) were used as non-tumor-bearing animals.
# Mice were sacrificed by anesthesia with sodium pentobarbital and bled by cardiac puncture. After cervical dislocation, the animals were dissected. Radioactivity in the tumors and tissues (liver, spleen, kidney, lung, intestine, blood and bone) was determined by gamma scintillation counting using an injection standard to correct for physical decay.
# [4] = test system: mice; assay: Kidney uptake of 125I-labeled Fab′ NP-4 and dosimetry for 131I-labeled Fab′ under L-lysine
# Source text: as §1
# [5] = test system: mice; assay: Maximum tolerated dose and toxicity of lysine and poly-lysine
# Source text: Comparison of the results in the control mice with those in the mice that receive the lysine and/or poly-lysine allows determination of the optimal dosage required to achieve the desired effect on kidney uptake of radioactivity. Determination of the dosage of lysine and/or poly-lysine that can be tolerated before toxic effects are observed can be achieved by physiological examination and histological observation of organs by methods. The optimal dosages of lysine and/or poly-lysine that are determined using the mouse model are used to guide the determination of appropriate dosage levels in human subjects using a standard dosage escalation regimen. Methods for determining effective dosages of lysine and/or poly-lysine for reducing kidney uptake are further illustrated in the Examples, below.
# as §2
# [6] = test system: GW39 colonic cancer xenograft bearing nude mice; assay: Biodistribution of anti-CEA 99mTc-Fab′ NP-4 under L-lysine / poly-L-lysine treatment
# Source text: as §1
# [7] = test system: nude mice bearing GW39 colonic cancer xenografts; assay: Kidney uptake and dosimetry of 188Re-Fab′ Mu-9 under L-lysine treatment
# Source text: as §1
# No effect on the uptake in the tunor or other organs was observed.
# [8] = test system: GW39 colonic cancer xenograft bearing nude mice; assay: Dosimetry of 111In/88Y-Bz-DTPA-Fab′ MN-14 under L-lysine treatment; conditions: L-lysine four times 2000 μg/g i.p.
# Method: as §1
# To test the effectiveness of L-lysine in reduction of kidney uptake of indium and yttrium-labeled Fab′ fragments, a mixture of ^111In and ^88Y-labeled Fab′ fragments of the anti-CEA antibody MN-14 were injected into GW39 colon carcinoma bearing nude mice (injected with four times 2000 μg/g L-lysine; the control group were untreated). FIG. 4 and Table 4 suns the results.
# [9] = 131I-Fab′ NP-4, L-lysine 4 × 2 mg/g
molecule,measurement,setting,value
Y labeled F(ab)2: 88Y-Bz-DTPA-labeled F(ab)2 fragment of the anti-CEA antibody MN-14,highest value of kidney uptake,"[1]; up to 24 h p.i., no lysine",about 43 % of the injected dose/g
NCCCC[C@@H](N)C(=O)O [D-lysine],lowering of kidney uptake compared with L-lysine,"[2]; four hourly injections i.p., same conditions as L-lysine",equally as effective as the L-isomer
NCCCC[C@H](N)C(=O)O [L-lysine],"Kidney dose, % control",[3],50.9 % control
same,"Kidney uptake, % control",[3]; 4 h p.i.,58.5 % control
same,"Kidney uptake, % control",[3]; 48 h p.i.,49.6 % control
same,"kidney uptake of iodine-labeled Fab′, % of the nontreated control","[4]; 125I-Fab′ NP-4, 4 h p.i.",38.7%
same,"Lys/control dose ratio, Blood",[4]; [9],0.99
same,"Lys/control dose ratio, Kidney",[4]; [9],0.51
same,"Lys/control dose ratio, Liver",[4]; [9],0.94
same,"Lys/control dose ratio, Lung",[4]; [9],0.95
same,"Lys/control dose ratio, Spleen",[4]; [9],0.81
same,reduction of the absorbed dose to the kidney,[4]; calculated for a 131I-labeled Fab′ fragment,50%
same,tolerability at the MTD,"[5]; 4×2500 μg/g, monitored for three months",tolerated without any obvious short or long term toxicity
same,maximum tolerated dose (MTD),[5]; 4× injected i.p. in hourly intervals,2500 µg/g
same,toxicity at doses higher than the MTD,[5]; above 4×2500 μg/g,began to develop fluid in the body cavities
same,"Kidney uptake, % of contr.","[6]; L-lysine 0.5 mg/g i.p. at −30′, 1, 2, 3 h, 4 h p.i.",63.0 % of contr.
same,"Kidney uptake, % of contr.","[6]; L-lysine 0.5 mg/g i.p. at −30′, 1, 2, 3 h, 24 h p.i.",70.0 % of contr.
same,"Kidney uptake, % of contr.","[6]; L-lysine 2 mg/g i.p. at −30′, 1, 2, 3 h, 4 h p.i.",29.7 % of contr.
same,"Kidney uptake, % of contr.","[6]; L-lysine 2 mg/g i.p. at −30′, 1, 2, 3 h, 24 h p.i.",30.0 % of contr.
same,influence on the tumor uptake or uptake in any other organ than the kidneys,[6]; nude mice bearing human colonic xenografts,no significant influence
same,"kidney uptake of 99mTc-Fab′ NP-4, % of the untreated control group","[2]; 4×2000 μg/g i.p. in hourly intervals, 4 h p.i.",19±1%
same,"Kidney uptake, % of contr.","[2]; injection 4x at −30′, 1, 2, 3 h, 4 h p.i.",15.5 % of contr.
same,"Kidney uptake, % of contr.","[2]; injection once at −30′, 4 h p.i.",56.4 % of contr.
same,"Kidney uptake, % of contr.","[2]; injection twice at −30′ and 1 h, 4 h p.i.",44.1 % of contr.
same,effect on kidney uptake of 99mTc-Fab′ NP-4,"[2]; doses below four times 100 μg/g body weight, hourly intervals",no significant effect
same,persistence of uptake reduction of 99mTc-Fab′,"[2]; mouse, in vivo",24 h
same,effect on the uptake in the tumor or other organs,[7]; 188Re-Fab′ Mu-9,No effect
same,"lys/contr. dose ratio, Blood",[7]; 188Re-Fab′ Mu-9,0.79
same,"lys/contr. dose ratio, Bone",[7]; 188Re-Fab′ Mu-9,0.89
same,"lys/contr. dose ratio, GW39",[7]; 188Re-Fab′ Mu-9,1.23
same,"lys/contr. dose ratio, Kidney",[7]; 188Re-Fab′ Mu-9,0.39
same,"lys/contr. dose ratio, Liver",[7]; 188Re-Fab′ Mu-9,0.96
same,"lys/contr. dose ratio, Lung",[7]; 188Re-Fab′ Mu-9,0.76
same,"lys/contr. dose ratio, Spleen",[7]; 188Re-Fab′ Mu-9,0.94
same,effect on the tumor dose,[7]; 188Re-Mu-9 Fab′ dosimetry,no effect on the tumor dose could be observed
same,"kidney dose, % of the renal dose in the control group",[7]; 188Re-Mu-9 Fab′ dosimetry,approximately 30%
same,"kidney uptake of 188Re-Fab′ Mu-9, % of the untreated control",[7]; 4 h p.i.,29%
same,"Kidney dose relative to control (100%), based on 88Y",[8],18.8%
same,"Kidney dose relative to control (100%), based on 111In",[8],22.9%
same,persistence of reduction of uptake,[1]; F(ab′)2 fragments,persisted for several days
same,"kidney uptake of 111In- and 88Y-F(ab′)2, % of control",[1]; lysine treatment,approximately 30%
